How the values were obtained:
Human Jurkat-E6-1 cells = test: Measurement of IL-2 secretion of Jurkat cells by ELISA; assay type: cell-based; conditions: Homo sapiens, Jurkat E6.1, anti-CD3/anti-CD28 stimulation 24 hours, read-out: Percentage of the amount of IL-2 secreted from compound treated/DMSO-treated cells; for activity at 1 µM: test compound 1.0 μM; for activity at 3 µM: test compound 3.0 μM
Summary of the method: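 Jurkat-E6-1 cells pre-incubated with compound for 30 min at 37° C, then stimulated 24 h with plate-bound anti-CD3 plus soluble anti-CD28. Secreted IL-2 in medium quantified by sandwich ELISA against a standard curve; expressed as percent of DMSO-treated cells.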

HPK1 = HPK1 (Homo sapiens (Human), UniProt Q92918); test: HPK1 kinase activity inhibition test (ADP-Glo, luminescence); assay type: biochemical; conditions: HPK1 5 nM, ATP 2 μM, read-out: IC50, inhibitory effects of compounds on HPK1 kinase activity
Summary of the method: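 HPK1 autophosphorylation was run without added substrate. Kinase and compound were preincubated 10 min at 25° C., then ATP was added for 60 min at 25° C. ADP formed was detected by ADP-Glo luminescence, and IC50 was taken from a four-parameter nonlinear fit.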

Sequence of HPK1 (Q92918 whole entry): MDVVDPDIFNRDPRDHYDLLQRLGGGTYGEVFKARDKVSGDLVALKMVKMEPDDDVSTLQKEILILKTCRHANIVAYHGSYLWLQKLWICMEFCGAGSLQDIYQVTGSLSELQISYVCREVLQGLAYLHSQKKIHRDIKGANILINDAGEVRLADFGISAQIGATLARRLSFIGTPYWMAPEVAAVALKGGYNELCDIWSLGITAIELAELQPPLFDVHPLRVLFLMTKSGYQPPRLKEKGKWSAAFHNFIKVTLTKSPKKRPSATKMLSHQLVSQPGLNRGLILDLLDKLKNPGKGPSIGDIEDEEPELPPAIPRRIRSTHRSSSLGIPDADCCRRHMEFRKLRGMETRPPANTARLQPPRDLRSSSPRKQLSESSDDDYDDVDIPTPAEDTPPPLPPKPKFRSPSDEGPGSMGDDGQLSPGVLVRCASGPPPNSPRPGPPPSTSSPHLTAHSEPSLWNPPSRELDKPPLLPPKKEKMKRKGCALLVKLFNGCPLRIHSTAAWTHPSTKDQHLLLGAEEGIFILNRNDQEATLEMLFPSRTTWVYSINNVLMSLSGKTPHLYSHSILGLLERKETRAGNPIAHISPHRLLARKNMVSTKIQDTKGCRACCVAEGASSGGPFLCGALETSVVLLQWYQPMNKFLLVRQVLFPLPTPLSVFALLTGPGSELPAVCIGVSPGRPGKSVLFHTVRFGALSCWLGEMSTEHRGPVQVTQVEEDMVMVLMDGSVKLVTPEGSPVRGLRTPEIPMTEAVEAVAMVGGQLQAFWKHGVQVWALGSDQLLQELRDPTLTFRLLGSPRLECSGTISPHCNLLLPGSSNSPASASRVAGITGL

Row | Compound | activity at 1 µM (Human Jurkat-E6-1 cells) | IC50 (HPK1) | activity at 3 µM (Human Jurkat-E6-1 cells)
1 | COc1cccc(F)c1-n1nc2c(-c3cnc(N4CCOCC4)s3)n[nH]c2cc1=O [Compound 148] | 531% | ≤ 0.05 µM | –
2 | Cc1cccc(F)c1-n1nc2c(-c3ccc4c(c3)CCN(C3CNC3)C4)n[nH]c2cc1=O [Compound 193] | – | ≤ 0.05 µM | 169%
3 | COc1cccc(F)c1-n1nc2c(-c3ccc(N4CCC(C)(N)CC4)cc3)n[nH]c2cc1=O [Compound 146, 3-(4-(4-amino-4-methylpiperidin-1-yl)phenyl)-5-(2-fluoro-6-methoxyphenyl)-1H-pyrazolo[4,3-c]pyridazin-6(5H)-one] | – | ≤ 0.05 µM | 537%
4 | Cc1cccc(F)c1-n1nc2c(-c3cccc(N4CCN(C)CC4)c3)n[nH]c2cc1=O [Compound 198, 5-(2-fluoro-6-methylphenyl)-3-(3-(4-methylpiperazin-1-yl)phenyl)-1H-pyrazolo[4,3-c]pyridazin-6(5H)-one] | – | ≤ 0.05 µM | 280%
5 | COc1cccc(F)c1-n1nc2c(-c3ccc(N4CCN(CC(C)(C)O)CC4)cc3)n[nH]c2cc1=O [Compound 115, 5-(2-fluoro-6-methoxyphenyl)-3-(4-(4-(2-hydroxyl-2-methylpropyl)piperazin-1-yl)phenyl)-1H-pyrazolo[4,3-c]pyridazin-6(5H)-one] | – | ≤ 0.05 µM | 542%
6 | Cc1cccc(F)c1-n1nc2c(-c3ccc(N4CC5CCC(C4)N5C)nc3)n[nH]c2cc1=O [Compound 109, 5-(2-fluoro-6-methylphenyl)-3-(6-(8-methyl-3,8-diazabicyclo[3.2.1]octan-3-yl)pyrid-3-yl)-1H-pyrazolo[4,3-c]pyridazin-6(5H)-one] | – | ≤ 0.05 µM | 491%
7 | CN1CCN(c2ccc(-c3n[nH]c4cc(=O)n(-c5c(F)cccc5C5CC5)nc34)cc2)CC1 [Compound 34, 5-(2-fluoro-6-cyclopropylphenyl)-3-(4-(4-methylpiperazin-1-yl)phenyl)-1H-pyrazolo[4,3-c]pyridazin-6(5H)-one] | 284% | ≤ 0.05 µM | –
8 | COc1cc(C#N)cc(F)c1-n1nc2c(-c3ccc(N4CCN(CCO)CC4)cc3)n[nH]c2cc1=O [Compound 114, 3-fluoro-4-(3-(4-(4-(2-hydroxyethyl)piperazin-1-yl)phenyl)-6-oxo-1H-pyrazolo[4,3-c]pyridazin-5(6H)-yl)-5-methoxybenzonitrile] | – | ≤ 0.05 µM | 309%
9 | COc1cccc(C)c1-n1nc2c(-c3ccc(N4CCN(C)CC4)cc3)n[nH]c2cc1=O [Compound 2, 5-(2-methoxy-6-methylphenyl)-3-(4-(4-methylpiperazin-1-yl)phenyl)-1H-pyrazolo[4,3-c]pyridazin-6(5H)-one] | – | 0.05 to 0.5 µM | 238%
10 | CCS(=O)(=O)N1CCN(c2ccc(-c3n[nH]c4cc(=O)n(-c5c(C)cccc5F)nc34)cn2)CC1 [Compound 105] | – | ≤ 0.05 µM | 623%
11 | Cc1cccc(F)c1-n1nc2c(-c3ccc(N4CCN(CCO)CC4)nc3)n[nH]c2cc1=O [Compound 118, 5-(2-fluoro-6-methylphenyl)-3-(6-(4-(2-hydroxyethyl)piperazin-1-yl)pyrid-3-yl)-1H-pyrazolo[4,3-c]pyridazin-6(5H)-one] | – | ≤ 0.05 µM | 550%
12 | CNC(=O)c1cc(F)c(-n2nc3c(-c4ccc(N5CCN(C)CC5)cc4)n[nH]c3cc2=O)c(OC)c1 [Compound 79, 3-fluoro-5-methoxy-N-methyl-4-(3-(4-(4-methylpiperazin-1-yl)phenyl)-6-oxo-1H-pyrazolo[4,3-c]pyridazin-5(6H)-yl)benzamide] | – | ≤ 0.05 µM | 361%
13 | Cc1cccc(F)c1-n1nc2c(-c3ccc(N4CC5CCC(C4)N5C)cc3)n[nH]c2cc1=O [Compound 61, 5-(2-fluoro-6-methylphenyl)-3-(4-(8-methyl-3,8-diazabicyclo[3.2.1]octan-3-yl)phenyl)-1H-pyrazolo[4,3-c]pyridazin-6(5H)-one] | – | ≤ 0.05 µM | 635%
14 | COc1ccncc1-n1nc2c(-c3ccc(C4=CCN(C)CC4)cc3)n[nH]c2cc1=O [Compound 151, 5-(4-methoxypyrid-3-yl)-3-(4-(1-methyl-1,2,3,6-tetrahydropyridin-4-yl)phenyl)-1H-pyrazolo[4,3-c]pyridazin-6(5H)-one] | – | 0.05 to 0.5 µM | 230%
15 | Cc1cccc(F)c1-n1nc2c(-c3ccc4c(c3)CN(C(C)CO)CC4)n[nH]c2cc1=O (stereo not drawn) [Compound 165, 5-(2-fluoro-6-methylphenyl)-3-(2-(1-hydroxylprop-2-yl)-1,2,3,4-tetrahydroisoquinolin-7-yl)-1H-pyrazolo[4,3-c]pyridazin-6(5H)-one] | 181% | 0.05 to 0.5 µM | –
16 | Cc1cccc(F)c1-n1nc2c(-c3ccc(N4CCN(C)CC4)nc3)n[nH]c2cc1=O [Compound 11, 5-(2-fluoro-6-methylphenyl)-3-(6-(4-methylpiperazin-1-yl)pyrid-3-yl)-1H-pyrazolo[4,3-c]pyridazin-6(5H)-one] | 296% | 0.05 to 0.5 µM | –
17 | Cc1cccc(F)c1-n1nc2c(-c3ccc(N4C[C@@H]5C[C@H]4CN5C)cc3)n[nH]c2cc1=O [Compound 87] | – | ≤ 0.05 µM | 584%
18 | Cc1cc(C#N)cc(F)c1-n1nc2c(-c3ccc(N4CCN(C(=O)[C@H](C)N)CC4)cc3)n[nH]c2cc1=O [Compound 82] | – | ≤ 0.05 µM | 195%
19 | Cc1cc(C#N)cc(F)c1-n1nc2c(-c3ccc(N4CCN(C5CCOC5)CC4)cc3)n[nH]c2cc1=O (stereo not drawn) [Compound 85, 3-fluoro-5-methyl-4-(6-oxo-3-(4-(4-(tetrahydrofuran-3-yl)piperazin-1-yl)phenyl)-1H-pyrazolo[4,3-c]pyridazin-5(6H)-yl)benzonitrile] | – | ≤ 0.05 µM | 239%
20 | Cc1ccccc1-n1nc2c(-c3ccc(N4CCN(C)CC4)cc3)n[nH]c2cc1=O [Compound 5, 5-(2-methylphenyl)-3-(4-(4-methylpiperazin-1-yl)phenyl)-1H-pyrazolo[4,3-c]pyridazin-6(5H)-one] | 162% | 0.05 to 0.5 µM | –
21 | Cc1cccc(F)c1-n1nc2c(-c3ccc(N4CCC(O)CC4)cc3)n[nH]c2cc1=O [Compound 138, 5-(2-fluoro-6-methylphenyl)-3-(4-(4-hydroxylpiperidin-1-yl)phenyl)-1H-pyrazolo[4,3-c]pyridazin-6(5H)-one] | – | ≤ 0.05 µM | 873%
22 | COc1cccc(F)c1-n1nc2c(-c3cccc(N4CC5CCC(C4)N5C)c3)n[nH]c2cc1=O [Compound 202, 5-(2-fluoro-6-methoxyphenyl)-3-(3-(8-methyl-3,8-diazabicyclo[3.2.1]octan-3-yl)phenyl)-1H-pyrazolo[4,3-c]pyridazin-6(5H)-one] | 539% | ≤ 0.05 µM | –
23 | CN1CCN(c2ccc(-c3n[nH]c4cc(=O)n(-c5ccccc5F)nc34)cc2)CC1 [Compound 6, 5-(2-fluorophenyl)-3-(4-(4-methylpiperazin-1-yl)phenyl)-1H-pyrazolo[4,3-c]pyridazin-6(5H)-one] | 185% | ≤ 0.05 µM | –
24 | COc1cccc(F)c1-n1nc2c(-c3ccc(N4CCN(C)C(C(C)(C)O)C4)cc3)n[nH]c2cc1=O (stereo not drawn) [Compound 126] | – | ≤ 0.05 µM | 428%

Reference: US20230322789A1, “PYRAZOLOPYRIDAZINONE COMPOUND, AND PHARMACEUTICAL COMPOSITION AND USE THEREOF” (BroadenBio Co., Ltd., priority 2020, published 2023)
